{"source": "patent US20230158067A1", "about": "(priority 2020, published 2023)", "key": {"SARS-CoV2": {"system": "SARS-CoV2", "test": "microbe, parasite or virus in culture", "type": "cell-based", "conditions": "for Percentages of infection at 24 h: MOI 0.002, technical replicates"}, "Vero cells": {"system": "Vero cells", "conditions": "uninfected Vero cells, MTT, 24 h"}, "[1]": {"conditions": "Severe acute respiratory syndrome coronavirus 2, Vero, 24 h"}}, "note": "Several values for one entry are separate records, joined by “and”; a condition that tells them apart may be missing. Equal values may be shown once."}
{"molecule": "CCC(CC)COC(=O)[C@H](C)N[P@](=O)(OC[C@H]1O[C@@](C#N)(c2ccc3c(N)ncnn23)[C@H](O)[C@@H]1O)Oc1ccccc1", "note": "[Remdesivir]", "values": [{"measurement": "Percentages of infection at 24 h", "setting": "SARS-CoV2; 0.01 μM", "result": "17.52% and 14.77% and 19.44%"}, {"measurement": "Percentages of infection at 24 h", "setting": "SARS-CoV2; 0.03 μM", "result": "20.60% and 10.69% and 23.44%"}, {"measurement": "Percentages of infection at 24 h", "setting": "SARS-CoV2; 0.08 μM", "result": "37.97% and 32.40% and 10.00%"}, {"measurement": "Percentages of infection at 24 h", "setting": "SARS-CoV2; 0.25 μM", "result": "8.05% and 17.17% and 39.50%"}, {"measurement": "Percentages of infection at 24 h", "setting": "SARS-CoV2; 0.74 μM", "result": "10.55% and 6.40% and 14.40%"}, {"measurement": "Percentages of infection at 24 h", "setting": "SARS-CoV2; 2.22 μM", "result": "2.04% and 1.54% and 1.69%"}, {"measurement": "Percentages of infection at 24 h", "setting": "SARS-CoV2; 6.67 μM", "result": "0.34% and 0.27% and 0.23%"}, {"measurement": "Percentages of infection at 24 h", "setting": "SARS-CoV2; 20.00 μM", "result": "0.78% and 0.24% and 0.27%"}, {"measurement": "EC50", "setting": "SARS-CoV2; [1]", "result": 0.654, "unit": "µM"}, {"measurement": "EC90", "setting": "SARS-CoV2; [1]", "result": 1690, "unit": "µM"}, {"measurement": "TC90", "setting": "Vero cells", "result": 3.4416, "unit": "µM"}]}
